Key:
[1] = tested on: ATQ-R5 (cytb F267V, parent 3D7); experiment: Cross-resistance EC50 assay, ATQ-R5; assay type: cell-based, Plasmodium falciparum; settings: Plasmodium falciparum, 3D7; SYBR green 72 hour assay; asynchronized parasites; 96-well or 1536-well format; ATQ-R5
Method in brief: (§1)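 Asexual blood-stage P. falciparum proliferation: 48-h ³H-hypoxanthine incorporation (0.5% parasitemia, >70% rings, 2.0% haematocrit, label added at 24 h) or 72-h SYBR Green I lysis fluorescence (0.3% parasitemia, 4% haematocrit). EC50 fold shift taken versus parent, or 3D7 when parent unavailable, under identical conditions.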

[2] = tested on: P. falciparum 3D7, Dd2, Dd2Δexo; experiment: In vitro evolution of compound-resistant lines (selection); assay type: cell-based, Plasmodium falciparum; settings: for Time Length to Obtain Mutants: in vitro selection; for # of Resistant Strains Generated: resistant cultures out of three independent cultures; for EC50 fold shifts observed: selected parasites vs selection parent
Method in brief: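 Resistance was selected in triplicate cultures. High-pressure: ~1–2 × 10^9 parasites at 3–10 × EC50, with intermittent or constant pressure. Step-wise: ~1 × 10^8 parasites, dose raised 5–10% to hold 50% growth reduction, until a reproducible >3× EC50 shift. Lines were cloned by limiting dilution; selection ended at 200 days.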

[3] = tested on: CYTb-G131S (cytb G131S, parent Dd2); experiment: Cross-resistance EC50 assay, CYTb-G131S; assay type: cell-based, Plasmodium falciparum; settings: Plasmodium falciparum; SYBR green 72 hour assay; synchronized parasites; 384-well format; strain CYTb:G131S (Dd2 parent)
Method in brief: as §1

[4] = tested on: GNF449-R2 (PfATP4 I203L and P990R, parent Dd2); experiment: Cross-resistance EC50 assay, GNF449-R2; assay type: cell-based; settings: Plasmodium falciparum, SYBR green 72 hour assay, asynchronized parasites, 96-well or 1536-well format
Method in brief: as §1

HepG2 = experiment: Hepatocyte toxicity; assay type: cell-based, human; settings: for Hepatocyte Toxicity: HepG2; for EC50 fold shift compared to asexual stage: Hepatocyte Toxicity: hepatocyte toxicity / 3D7 EC50; for Liver Stage / Hepatocyte Toxicity: toxicity fold shift for the liver stage (hepatocyte toxicity vs liver stage EC50)
Method in brief: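 Duplicate 12-point dose curves, starting at 5 μM or 50 μM, gave EC50s for both parasite and host toxicity. Compound was added to human HepG2 hepatocytes 2 h before infection with freshly dissected P. berghei sporozoites. Surviving liver-stage forms were quantified by luminescence after 48 h.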

Row | Compound | EC50 [1] [µM] | Time Length to Obtain Mutants [2] | # of Resistant Strains Generated [2] | EC50 fold shifts observed [2] | EC50 [3] [µM] | EC50 [4] [µM] | Hepatocyte Toxicity (HepG2) [µM] | EC50 fold shift compared to asexual stage: Hepatocyte Toxicity (HepG2) | Liver Stage / Hepatocyte Toxicity (HepG2)
1 | O=C(NC(c1ccccc1)c1ccc2cccnc2c1O)c1ccccc1 (stereo not shown) [MMV666080] | 0.756 | LONG (> 125 days) | 0/3 | no shift | 0.401 | 1.11 | 1.309 | 1.55 | 2.82
2 | COc1ccc(N2CCN(C(CNC(=O)C3CCCCC3)c3ccc4c(c3)OCO4)CC2)cc1 (stereo not shown) [MMV019662] | 0.596 | MODERATE (50-125 days) | 3/3 | 15x | 0.583 | 0.452 | > 50 | > 147 | > 2.65
3 | c1cc(-c2cnc3ccc(-c4ccc(N5CCOCC5)cc4)nn23)ccn1 [MMV668311] | 0.029 | LONG (> 125 days) | 0/3 | no shift | 0.063 | 0.03 | 5.119 | 106.65 | 2.27
4 | COc1ccc(C(=O)C2CC2c2ccc(Cl)cc2)cc1 (stereo not shown) [MMV665924] | 3.63 | SHORT (0-50 days) | 3/3 | 3-5x | 1.91 | 1.29 | > 5 | > 6 | –
5 | CCC(C)NCC(O)(c1ccc(Cl)cc1)c1ccc(Cl)cc1 (stereo not shown) [MMV665928] | 0.074 | SHORT (0-50 days) | 0/3 | no shift | 0.669 | 0.16 | > 5 | > 10 | –

— article PMC4912613, “A broad analysis of resistance development in the malaria parasite” (Nature Communications, 2016)
